± gives the standard deviation of the reports.
## *c1cc(OCCCCCCCCCCCCCCCC)cc(N2C(=O)c3ccc(Oc4ccc5c(c4)C(=O)N(*)C5=O)cc3C2=O)c1 (repeat unit)
  glass transition temperature: 159.00 °C

## */C=C(\C#N)c1cccc(/C(C#N)=C/c2ccc(/C=C/c3ccc(N(c4ccccc4)c4ccc(N(c5ccccc5)c5ccc(/C=C/c6ccc(*)s6)cc5)cc4)cc3)s2)c1 (repeat unit)
  glass transition temperature: 178.00 °C

## *O[Si](c1ccccc1)(c1ccccc1)c1cccc(*)c1 (repeat unit)
  glass transition temperature: 62.00 °C

## *CC(*)c1cccc(OC(C)=O)c1 (repeat unit)
  glass transition temperature: 76.00 °C

## *Oc1ccc(NC(=O)c2ccc(Oc3ccc(C(C)(C)c4ccc(C(C)(C)c5ccc(Oc6ccc(C(=O)Nc7ccc(Oc8ccc(C(C)(C)c9ccc(*)cc9)cc8)cc7)cc6)cc5)cc4)cc3)cc2)cc1 (repeat unit)
  glass transition temperature: 163.00 °C

## *c1ccc(-c2ccc(N3C(=O)c4ccc(Oc5ccc(Oc6ccc7c(c6)C(=O)N(*)C7=O)cc5)cc4C3=O)c(OC)c2)cc1OC (repeat unit)
  glass transition temperature: 274.00 °C

## *CCOC(=O)Nc1ccc(C)c(NC(=O)OCCOc2ccc(C3(c4ccc(O*)cc4)c4ccccc4-c4ccccc43)cc2)c1 (repeat unit)
  glass transition temperature: 175.00 °C

## *CC(*)C(=O)OC(C(F)(F)F)C(F)(F)F (repeat unit)
  glass transition temperature: 42.30 °C

## *CCCCOC(=O)OCCCCN1C(=O)c2ccc(-c3ccc4c(c3)C(=O)N(*)C4=O)cc2C1=O (repeat unit)
  glass transition temperature: 104.00 °C

## *c1ccc2nc(-c3ccc4c(c3)C(=O)N(c3cc(C(*)(C(F)(F)F)C(F)(F)F)ccc3O)C4=O)oc2c1 (repeat unit)
  glass transition temperature: 329.00 °C

## *c1ccc(Oc2cc(C(C)(C)C)c(Oc3ccc(-n4c(=O)c5cc6c(=O)n(*)c(=O)c6cc5c4=O)cc3)cc2C(C)(C)C)cc1 (repeat unit)
  glass transition temperature: 298.00 °C

## *CC(F)(F)CC(*)(C(F)(F)F)C(F)(F)F (repeat unit)
  glass transition temperature: 132.00 °C

## *CC(O*)C1CC(F)(F)C1(F)F (repeat unit)
  glass transition temperature: -25.00 °C

## *c1ccc(Oc2ccc(-c3nc4cc5sc(*)nc5cc4s3)cc2)cc1 (repeat unit)
  glass transition temperature: 350.00 °C

## *CCCCCCCCCCCCCCCCOC(=O)NCCCCCCCCCCNC(=O)O* (repeat unit)
  glass transition temperature: 34.00 °C

## *Oc1ccc(C(c2ccc(Oc3c(F)c(F)c(C(=O)c4c(F)c(F)c(*)c(F)c4F)c(F)c3F)cc2)(C(F)(F)F)C(F)(F)F)cc1 (repeat unit)
  glass transition temperature: 149.00 °C

## *c1ccc(Oc2ccc(C(C)(C)c3ccc(Oc4ccc(N5C(=O)c6ccc(-c7ccc8c(c7)C(=O)N(*)C8=O)cc6C5=O)cc4)cc3)cc2)cc1 (repeat unit)
  glass transition temperature: 237.50 ± 15 °C

## *CC(CCCCCC)O* (repeat unit)
  glass transition temperature: -67.00 °C

## *CC(*)SCCCC (repeat unit)
  glass transition temperature: -20.00 °C

## *O[Si](C)(C)C#Cc1ccc(C#C[Si](*)(C)C)cc1 (repeat unit)
  glass transition temperature: 126.00 °C

## *CCCCCOC(=O)Nc1ccc(C)c(NC(=O)O*)c1 (repeat unit)
  glass transition temperature: 52.00 °C

## *Oc1ccc(C(c2ccc(OC3(F)C(*)(F)C(F)(F)C3(F)F)cc2)(C(F)(F)F)C(F)(F)F)cc1 (repeat unit)
  glass transition temperature: 122.50 °C

## */C=C/C1CC(*)C2C(=O)N(CCCCCCCCCC)C(=O)C12 (repeat unit)
  glass transition temperature: 46.00 °C

## *CCOC(=O)NCCCCCCCCCCNC(=O)O* (repeat unit)
  glass transition temperature: 60.80 °C

## *Cc1ccc(CNC(=O)CCCCCCCCC(=O)N*)cc1 (repeat unit)
  glass transition temperature: 115.00 °C

## *O[Si](*)(C)CCCOc1ccc(C(=O)Oc2ccc(OC)cc2)cc1 (repeat unit)
  glass transition temperature: 37.00 °C

## *C(=O)OCCN(CCOC(=O)c1ccc2c(c1)C(=O)N(c1c(C)cc(Cc3cc(C)c(N4C(=O)c5ccc(*)cc5C4=O)c(C)c3)cc1C)C2=O)c1ccccc1 (repeat unit)
  glass transition temperature: 177.00 °C

## *CC(*)(CCC(C)C(=O)OC)C(=O)OC (repeat unit)
  glass transition temperature: 34.00 °C

## *O[Si](*)(C)CC[Si](C)(C)O[Si](C)(C)CCCOc1cc(OC(=O)c2ccc(OCCCC)cc2)ccc1/N=N/c1ccc(OCCCC)cc1 (repeat unit)
  glass transition temperature: -4.00 °C

## *CC(*)c1ccccc1C(=O)Oc1ccccc1 (repeat unit)
  glass transition temperature: 124.00 °C

## *c1cc(C(C)C)c(Oc2ccc(S(=O)(=O)c3ccc(Oc4cc(C)c(C5(*)OC(=O)c6ccccc65)cc4C(C)C)cc3)cc2)cc1C (repeat unit)
  glass transition temperature: 230.00 °C

## *CC(*)c1ccc(-c2cccc3nsnc23)cc1 (repeat unit)
  glass transition temperature: 150.00 °C

## *CCNC(=O)c1ccc([Si](C)(C)c2ccc(C(=O)NCCN(*)c3ccc(/C=C/c4ccc([N+](=O)[O-])cc4)cc3)cc2)cc1 (repeat unit)
  glass transition temperature: 150.00 °C

## *CCCCCCCCNC(=O)CCCCC(=O)N* (repeat unit)
  glass transition temperature: 50.00 °C

## *c1ccc(Oc2ccc(Oc3ccc(P(=O)(c4ccccc4)c4ccc(Oc5ccc(Oc6ccc(-c7nc8ccccc8nc7*)cc6)cc5)cc4)cc3)cc2)cc1 (repeat unit)
  glass transition temperature: 209.00 °C

## *c1ccc(N2C(=O)c3ccc(Oc4ccc5c(c4)C(=O)N(*)C5=O)cc3C2=O)cc1 (repeat unit)
  glass transition temperature: 355.8 ± 42 °C

## *c1cccc(NC(=O)c2ccc(OCCOCCOCCOCCOCCOc3ccc(C(=O)Nc4ccc5[nH]c(*)nc5c4)cc3)cc2)c1 (repeat unit)
  glass transition temperature: 140.00 °C

## *CCCCCCCCOC(=O)c1ccc(C(=O)O*)cc1 (repeat unit)
  glass transition temperature: 45.00 °C

## *c1ccc(Oc2ccc(Sc3ccc(Oc4ccc(N5C(=O)c6ccc(Oc7ccc(Oc8ccc9c(c8)C(=O)N(*)C9=O)cc7)cc6C5=O)cc4)cc3)cc2)cc1 (repeat unit)
  glass transition temperature: 201.00 °C

## *c1ccc(Oc2ccc(-c3cnnc(-c4cccc(-c5ncc(*)nn5)n4)n3)cc2)cc1 (repeat unit)
  glass transition temperature: 223.00 °C

## *C(=O)c1ccc(-c2ccc(C(C)(C)c3ccc(-c4ccc(C(=O)c5ccc6c(c5)C(=O)N(c5ccc(Cc7ccc(N8C(=O)c9ccc(*)cc9C8=O)cc7)cc5)C6=O)cc4)cc3)cc2)cc1 (repeat unit)
  glass transition temperature: 216.00 °C

## *Oc1ccc(S(=O)(=O)c2ccc(Oc3ccc(NC(=O)c4cc(NC(=O)c5ccncc5)cc(C(=O)Nc5ccc(*)cc5)c4)cc3)cc2)cc1 (repeat unit)
  glass transition temperature: 283.00 °C

## *CC(*)(C)C(=O)OCCCCC (repeat unit)
  glass transition temperature: 10.00 °C

## *c1ccc2c(c1)C(=O)N(c1ccc(C3(c4ccc(N5C(=O)c6ccc(C(*)(C(F)(F)F)C(F)(F)F)cc6C5=O)cc4)c4ccccc4-c4ccccc43)cc1)C2=O (repeat unit)
  glass transition temperature: 370.00 °C

## *CCCCCCCOC(=O)c1ccc(C(=O)O*)cc1 (repeat unit)
  glass transition temperature: -1.00 °C

## *OP(=O)(Oc1ccc([N+](=O)[O-])cc1)Oc1ccc(S(=O)(=O)c2ccc(*)cc2)cc1 (repeat unit)
  glass transition temperature: 114.00 °C

## *OC(COc1ccccc1)CC(*)=O (repeat unit)
  glass transition temperature: 20.00 °C

## *OC1CCC(OC(*)=O)CC1 (repeat unit)
  glass transition temperature: 138.00 °C
